Results on 55 compounds are retold here after patent publication US10202404B2, “Polycyclic pyridone derivative having integrase inhibitory activity” (Shionogi & Co., Ltd., priority 2014, dated 2019).

Usually EC50 stands for the concentration giving half of the maximal effect.

The test system of one assay is HIV. Nature of the assay: Anti-HIV activity (MT-4 cells, MTT). The settings on record: 50% HIV inhibition concentration; MT-4 cells infected with HIV, incubated 4 days, MTT readout. The assay is classed as cell-based. The protocol:
Previously, a series of two-fold dilution on test samples were carried out in a 96-well plate (50 μL/well). Two plates were made for measuring anti-HIV activity and measuring cytotoxicity. For each agent, measurement in duplicate was carried out. An MT-4 cell suspension of 2.5×10^5/mL was dispensed at 100 μL/well onto the 96-well plate containing the test samples. An HIV virus solution was dispensed at 50 μL/well onto the 96-well plate containing the test samples and the cell. To the plate for measuring cytotoxicity, a culture solution was dispensed at 50 μL/well. It was mixed by a plate mixer, and then incubated in a CO2 incubator for 4 days. […] Thirty microliters of a MTT (3-(4,5-dimethylthiazol-2-yl)-2,5-diphenyltetrazolium bromide) solution was dispensed to each well.
A reaction was allowed to occur in a CO2 incubator for an hour. From each well, 150 μL of the supernatant was removed such that cells are not sucked. One-hundred and fifty microliters of a cell lysis solution was added thereto, and then it was mixed well by a plate mixer until the whole cells are lysed. The mixed 96-well plates were measured by a microplate reader at two wavelengths, 560 nm/690 nm. Based on the following calculation formula, 50% HIV inhibition concentration (EC50) was calculated. EC50=10Z Z=(50%−Low %)/(High %−Low %)×{log(High conc.)−log(Low conc.)}+log(Low conc.) Based on the following calculation formula, 50% cytotoxic concentration (CC50) was calculated. CC50=10Z Z=(50%−Low %)/(High %−Low %)×{log(High conc.)−log(Low conc.)}+log(Low conc.) Based on the following calculation formula, selectivity index (ST) was calculated. SI=CC50/EC50 (Result)
Regarding `C[C@@H]1CCO[C@H]2Cn3cc(-c4nnc(Cc5ccc(F)cc5F)[nH]4)c(=O)c(O)c3C(=O)N12` [Compound A-52], the 50% effective concentration (EC50) came out at 18 nM. The same measure, in the same setting: with `O=C1c2c(O)c(=O)c(-c3nnc(Cc4ccc(F)cc4F)s3)cn2C[C@@H]2CCCCN12` [Compound B-1] the figure was 2.9 nM; with `CCN1CN(CCOC)C(=O)c2c(O)c(=O)c(-c3ncc(Cc4ccc(F)cc4F)s3)cn21` [Compound C-10], 5.8 nM; with `C[C@@H]1CCO[C@H]2Cn3cc(-c4cnc(Cc5ccc(F)cc5F)s4)c(=O)c(O)c3C(=O)N12` [Compound A-40], 11 nM.

The same assay, now with this note: Human immunodeficiency virus 1, MT4, 96 h; 50% HIV inhibition concentration; MT-4 cells infected with HIV, incubated 4 days, MTT readout.
On to `O=C1c2c(O)c(=O)c(-c3nnc(Cc4ccc(F)cc4F)s3)cn2CN2CCCN12` [Compound C-19], for which the EC50 stood at 4.2 nM.

`C[C@H]1CCN(C2CC2)[C@@H]2Cn3cc(-c4nnc(Cc5cccc(Cl)c5F)s4)c(=O)c(O)c3C(=O)N12` [Compound A-56] returned an EC50 of 4 nM.

`O=C1c2c(O)c(=O)c(-c3nnc(Cc4ccc(F)cc4F)s3)cn2C[C@H]2CCCCN12` [Compound B-2] came in with an EC50 of 3.9 nM. The EC50 values of the last two compounds are within 1.5-fold of each other. Still for that read-out and setting: as for `O=C1c2c(O)c(=O)c(-c3ncc(Cc4cccc(Cl)c4F)s3)cn2C[C@H]2CCCCN12` [Compound B-18], the figure is 14 nM; as for `C[C@@H]1CCO[C@H]2Cn3cc(-c4cn(Cc5cccc(Cl)c5F)cn4)c(=O)c(O)c3C(=O)N12` [Compound A-50], 12 nM; as for `COCCN1CN(C)n2cc(-c3ncc(Cc4ccc(F)cc4F)s3)c(=O)c(O)c2C1=O` [Compound C-13], 2.7 nM. The compound `CC(=O)Oc1c2n(cc(-c3nnc(Cc4ccc(F)cc4F)s3)c1=O)C[C@@H]1OCC[C@@H](C)N1C2=O` [Compound D-1] returned an EC50 of 3.8 nM. Same read-out and setting: as for `O=C1c2c(O)c(=O)c(-c3ncc(Cc4cccc(Cl)c4F)s3)cn2C[C@@H]2CCCN12` [Compound B-14], the figure is 10 nM; as for `Cc1nc(-c2cn3c(c(O)c2=O)C(=O)N2[C@@H](C)CO[C@@H]2C3)sc1Cc1cccc(Cl)c1F` [Compound A-46], 3.9 nM; as for `O=C1c2c(O)c(=O)c(-c3nnc(Cc4ccc(F)cc4F)s3)cn2CN2CCOCCN12` [Compound C-16], 8.5 nM.

On to `C[C@@H]1CCO[C@H]2Cn3cc(-c4ncc(Cc5cccc(Cl)c5F)s4)c(=O)c(O)c3C(=O)N12` [Compound A-1], for which the concentration for a half-maximal effect (EC50) turned out to be 7.8 nM.

`C[C@H]1CO[C@@H]2Cn3cc(-c4ncc(Cc5ccc(F)cc5F)s4)c(=O)c(O)c3C(=O)N12` [Compound A-6]: the response was half-maximal at 1.9 nM (EC50). Compared with the last compound, the EC50 is about 4.1-fold lower. On the same count and under the same terms, as for `C[C@H]1[C@H]2CCCN2[C@@H]2Cn3cc(-c4nnc(Cc5ccc(F)cc5F)s4)c(=O)c(O)c3C(=O)N12` [Compound A-62], the figure is 1.6 nM; as for `C[C@@H]1CCO[C@H]2Cn3cc(-c4nnc(Cc5c(F)ccc(Cl)c5F)s4)c(=O)c(O)c3C(=O)N12` [Compound A-25], 3.4 nM; as for `C[C@H]1CO[C@@H]2Cn3cc(-c4ncc(Cc5c(F)cc(F)cc5F)s4)c(=O)c(O)c3C(=O)N12` [Compound A-14], 1.2 nM.

The compound `CCN1CN(CCCOC)C(=O)c2c(O)c(=O)c(-c3nnc(Cc4ccc(F)cc4F)s3)cn21` [Compound C-7] yielded an EC50 of 2 nM. Compound `C[C@@H]1CCN2C(=O)c3c(O)c(=O)c(-c4nnc(Cc5ccc(F)cc5F)s4)cn3C[C@@H]2O1` [Compound A-16] gave an EC50 of 2.1 nM. The compound `C[C@@H]1CO[C@H]2Cn3cc(-c4nnc(Cc5ccc(F)cc5F)s4)c(=O)c(O)c3C(=O)N12` [Compound A-19] gave an EC50 of 3.1 nM.

In turn, `CCN1Cn2cc(-c3nnc(Cc4ccc(F)cc4F)s3)c(=O)c(O)c2C(=O)N1CC` [Compound C-21] had an EC50 of 1.5 nM.

On to `CCN1CN(CCOC)C(=O)c2c(O)c(=O)c(-c3nnc(Cc4ccc(F)cc4F)s3)cn21` [Compound C-2], for which the response was half-maximal at 1.4 nM (EC50).

`COC[C@@H]1CCN2C(=O)c3c(O)c(=O)c(-c4nnc(Cc5ccc(F)cc5F)s4)cn3C[C@@H]2O1` [Compound A-68]: it took 4.6 nM to reach a half-maximal effect (EC50). Still for that read-out and setting: as for `C[C@@H]1CCO[C@H]2Cn3cc(-c4nnc(Cc5cc(C(F)(F)F)cc(Cl)c5F)s4)c(=O)c(O)c3C(=O)N12` [Compound A-34], the figure is 13 nM.

With `O=C1c2c(O)c(=O)c(-c3ncc(Cc4ccc(F)cc4F)s3)cn2C[C@H]2CCCCN12` [Compound B-16], the EC50 is 7.7 nM. With `C[C@@H]1CCO[C@H]2Cn3cc(-c4nnc(Cc5cc(F)c(F)cc5F)s4)c(=O)c(O)c3C(=O)N12` [Compound A-24], the EC50 stood at 4.2 nM.

In turn, `O=C1c2c(O)c(=O)c(-c3nnc(Cc4ccc(F)cc4F)s3)cn2C[C@@H]2[C@H]3CC[C@H](C3)N12` [Compound B-22] displayed an EC50 of 3.5 nM. Same read-out and setting: with `CCN1CN([C@H](C)C(F)(F)F)C(=O)c2c(O)c(=O)c(-c3nnc(Cc4ccc(F)cc4F)s3)cn21` [Compound C-5] the figure was 3.4 nM. The compound `C[C@H]1CO[C@@H]2Cn3cc(-c4nnc(Cc5cccc(Cl)c5F)s4)c(=O)c(O)c3C(=O)N12` [Compound A-18] returned an EC50 of 2.3 nM. `Cc1nc(-c2cn3c(c(O)c2=O)C(=O)N2[C@H](C)CCO[C@H]2C3)sc1Cc1cccc(Cl)c1F` [Compound A-80] yielded an EC50 of 6.3 nM. Compared with the last compound, the EC50 is about 2.7-fold higher.

In the case of `C[C@@H]1CCO[C@H]2Cn3cc(-c4nnc(Cc5ccc(F)c(Cl)c5F)s4)c(=O)c(O)c3C(=O)N12` [Compound A-26], the EC50 came to 3.8 nM. Compound `COC(=O)OCOc1c2n(cc(-c3nnc(Cc4ccc(F)cc4F)s3)c1=O)C[C@@H]1OCC[C@@H](C)N1C2=O` [Compound D-2] had an EC50 of 8 nM. The same measure, in the same setting: as for `COCCN1C(=O)c2c(O)c(=O)c(-c3nnc(Cc4ccc(F)cc4F)s3)cn2CN1C` [Compound C-20], the figure is 1.7 nM; as for `C[C@@H]1CCO[C@H]2Cn3cc(-c4cn(Cc5ccc(F)cc5F)nn4)c(=O)c(O)c3C(=O)N12` [Compound A-72], 8.5 nM; as for `C[C@H]1CO[C@@H]2Cn3cc(-c4nnc(Cc5ccc(F)cc5F)s4)c(=O)c(O)c3C(=O)N12` [Compound A-15], 1.1 nM. On the same count and under the same terms, as for `COC[C@H]1CCN2C(=O)c3c(O)c(=O)c(-c4nnc(Cc5ccc(F)cc5F)s4)cn3C[C@H]2O1` [Compound A-69], the figure is 5.1 nM.

For `O=C1c2c(O)c(=O)c(-c3nnc(Cc4ccc(F)cc4F)s3)cn2C[C@H]2O[C@@H]3COC[C@@H]3N12` [Compound A-73], the EC50 amounted to 5.7 nM. Compound `COCCN1CN(C)n2cc(-c3nnc(Cc4ccc(F)cc4F)s3)c(=O)c(O)c2C1=O` [Compound C-3] had a half-maximal effective concentration (EC50) of 1.1 nM. Against the preceding compound, the EC50 is about 5.2-fold lower. The compound `O=C1c2c(O)c(=O)c(-c3nnc(Cc4ccc(F)cc4F)s3)cn2C[C@H]2OCC[C@@H](C(F)(F)F)N12` [Compound A-70] came in with an EC50 of 8 nM. Still for that read-out and setting: with `C[C@H]1CO[C@@H]2Cn3cc(-c4cnc(Cc5ccc(F)cc5F)s4)c(=O)c(O)c3C(=O)N12` [Compound A-42] the figure was 10 nM. Compound `COC[C@@H]1CCO[C@H]2Cn3cc(-c4nnc(Cc5ccc(F)cc5F)s4)c(=O)c(O)c3C(=O)N12` [Compound A-67] gave an EC50 of 4.2 nM. `C[C@H]1CCO[C@@H]2Cn3cc(-c4ncc(Cc5cccc(Cl)c5F)s4)c(=O)c(O)c3C(=O)N12` [Compound A-11] returned an EC50 of 8.8 nM. `Cc1nc(-c2cn3c(c(O)c2=O)C(=O)N2[C@H](C)CCO[C@H]2C3)sc1Cc1ccc(F)cc1F` [Compound A-45] yielded an EC50 of 4.1 nM. The compound `C[C@H]1CO[C@@H]2Cn3cc(-c4cn(Cc5ccc(F)cc5F)cn4)c(=O)c(O)c3C(=O)N12` [Compound A-44] came in with a concentration giving a half-maximal response (EC50) of 5.1 nM. The compound `C[C@@H]1CO[C@H]2Cn3cc(-c4ncc(Cc5ccc(F)cc5F)s4)c(=O)c(O)c3C(=O)N2C1` [Compound A-8] showed an EC50 of 3.5 nM. Same read-out and setting: as for `O=C1c2c(O)c(=O)c(-c3ncc(Cc4ccc(F)cc4F)s3)cn2C[C@H]2CCCN12` [Compound B-15], the figure is 4 nM; as for `O=C1c2c(O)c(=O)c(-c3nnc(Cc4ccc(F)cc4F)s3)cn2C[C@H]2CCCN12` [Compound B-3], 3.7 nM. The same measure, in the same setting: with `Cc1nc(-c2cn3c(c(O)c2=O)C(=O)N2[C@H](C)CCO[C@H]2C3)cn1Cc1ccc(F)cc1F` [Compound A-59] the figure was 9.5 nM; with `COCCN1Cn2cc(-c3nnc(Cc4ccc(F)cc4F)s3)c(=O)c(O)c2C(=O)N1C(C)C` [Compound C-22], 1.3 nM; with `O=C1c2c(O)c(=O)c(-c3nnc(Cc4ccc(F)cc4F)s3)cn2CN2CC3(CC3)CN12` [Compound C-24], 2.4 nM.

Consider `C[C@H]1N2C(=O)c3c(O)c(=O)c(-c4nnc(Cc5ccc(F)cc5F)s4)cn3C[C@@H]2OCC12CC2` [Compound A-57], for which the EC50 was 1.7 nM.

Consider `C[C@H]1CCO[C@@H]2Cn3cc(-c4ncc(Cc5ccc(F)cc5F)s4)c(=O)c(O)c3C(=O)N12` [Compound A-10], for which the EC50 is 4.4 nM.

Regarding `CCN1C(=O)c2c(O)c(=O)c(-c3nnc(Cc4ccc(F)cc4F)s3)cn2CN1C` [Compound C-23], it took 1.2 nM to reach a half-maximal effect (EC50).
